Experimental data reported in patent US12252701B2, “Chimeric antigen receptor T cell therapy” (KITE PHARMA, INC., priority 2020, dated 2025).

Legend:
[1] = system: phospho-STAT panel (pSTAT3/4/5), CD3+ T cells; experiment: phospho-STAT induction by IL-6, MesoScale Discovery phospho-STAT panel; assay type: cell-based, human; conditions: for pSTAT3 / pSTAT4 / pSTAT5: CD3+ T cells
Method: CD19 CAR-T, PBMC or CD3+ T cells (AllCells) were thawed and rested 0/N at 37° C. in R10 media. Cells were seeded at 700,000 cells/well and were either untreated or treated with 100 ng/ml IL6+drug at indicated concentrations for 20 minutes at 37° C. The cells were then washed with cold PBS and followed by 60 μl of Tris lysis buffer (provided by MSD) for 30 minutes on ice. Lysates were collected by spin down for 10 minutes at >10,000 rpm. 25 μl/well per condition was used for MesoScale Discovery (MSD) assay using the phospho-STAT panel (pSTAT3/4/5) from MesoScale Discovery following the manufacturer's protocol. pSTAT panel plates were blocked with 150 μl of blocker A solution for 1 hr at RT with shaking. Plates were washed three times with 1× Tris wash buffer. 25 μl of lysate samples were added per well, incubated 2 hr at room temperature or at 4° C. overnight. Plates were washed 3 times with 1× tris wash buffer and then 25 μl of detection antibody solution were added to each well and incubated for 1 hr at room temperature with shaking. Plates were washed and 1× read buffer added to each well and plates were read on the MSD instrument.

in vitro = conditions: human
[2] = system: NALM6.GFP.LUC.CD19 target cells; experiment: Serial killing assay of CAR-T, percent cytotoxicity by luciferase detection; conditions: two different E:T ratios, dose titration
Method: The percent cytotoxicity to NALM6.GFP.LUC.CD19 target cells was measured by luciferase detection at each round.
In one embodiment, a serial killing assay is a combination of cell killing and how long it takes for CAR T cells to get exhausted under repeated stimulation. In one embodiment, a serial killing assay is a surrogate measure for CAR T cell persistence in vivo.

[3] = Clinical pharmacokinetic data converted to in vitro concentrations; conditions: human, in vivo
Text: Given the different potencies of the JAK inhibitors and different pharmacokinetic properties for each drug, it was sought to test each drug at a relevant range of physiological concentrations based on clinical dosing and reported pharmacokinetic data from repeat dose studies. Reported Cmax values in patient sera were converted to in vitro concentrations and adjusted for reported plasma protein binding.

[4] = lower dose titration, IL-6 + drug 3.125 nM, MSD signal (No stim. 123, IL-6 alone 5767)
[5] = lower dose titration, IL-6 + drug 3.125 nM, MSD signal (No stim. 281, IL-6 alone 3624)
[6] = lower dose titration, IL-6 + drug 3.125 nM, MSD signal (No stim. 324, IL-6 alone 2352)
[7] = lower dose titration, IL-6 + drug 6.25 nM, MSD signal (No stim. 123, IL-6 alone 5767)
[8] = lower dose titration, IL-6 + drug 6.25 nM, MSD signal (No stim. 281, IL-6 alone 3624)
[9] = lower dose titration, IL-6 + drug 6.25 nM, MSD signal (No stim. 324, IL-6 alone 2352)
[10] = lower dose titration, IL-6 + drug 12.5 nM, MSD signal (No stim. 123, IL-6 alone 5767)
[11] = lower dose titration, IL-6 + drug 12.5 nM, MSD signal (No stim. 281, IL-6 alone 3624)
[12] = lower dose titration, IL-6 + drug 12.5 nM, MSD signal (No stim. 324, IL-6 alone 2352)
[13] = lower dose titration, IL-6 + drug 25 nM, MSD signal (No stim. 123, IL-6 alone 5767)
[14] = lower dose titration, IL-6 + drug 25 nM, MSD signal (No stim. 281, IL-6 alone 3624)
[15] = lower dose titration, IL-6 + drug 25 nM, MSD signal (No stim. 324, IL-6 alone 2352)
[16] = lower dose titration, IL-6 + drug 50 nM, MSD signal (No stim. 123, IL-6 alone 5767)
[17] = lower dose titration, IL-6 + drug 50 nM, MSD signal (No stim. 281, IL-6 alone 3624)
[18] = lower dose titration, IL-6 + drug 50 nM, MSD signal (No stim. 324, IL-6 alone 2352)
[19] = lower dose titration, IL-6 + drug 100 nM, MSD signal (No stim. 123, IL-6 alone 5767)
[20] = lower dose titration, IL-6 + drug 100 nM, MSD signal (No stim. 281, IL-6 alone 3624)
[21] = lower dose titration, IL-6 + drug 100 nM, MSD signal (No stim. 324, IL-6 alone 2352)
[22] = 100 ng/ml IL-6 + drug 10 uM, 20 min, MSD signal (No stim. 689, IL-6 alone 33641)
[23] = 100 ng/ml IL-6 + drug 10 uM, 20 min, MSD signal (No stim. 1964, IL-6 alone 15405)
[24] = 100 ng/ml IL-6 + drug 10 uM, 20 min, MSD signal (No stim. 9210, IL-6 alone 17743)
[25] = IL-6 + drug 0.125 uM, MSD signal (No stim. 689, IL-6 alone 33641)
[26] = IL-6 + drug 0.125 uM, MSD signal (No stim. 1964, IL-6 alone 15405)
[27] = IL-6 + drug 0.125 uM, MSD signal (No stim. 9210, IL-6 alone 17743)
[28] = IL-6 + drug 0.5 uM, MSD signal (No stim. 689, IL-6 alone 33641)
[29] = IL-6 + drug 0.5 uM, MSD signal (No stim. 1964, IL-6 alone 15405)
[30] = IL-6 + drug 0.5 uM, MSD signal (No stim. 9210, IL-6 alone 17743)
[31] = IL-6 + drug 1 uM, MSD signal (No stim. 689, IL-6 alone 33641)
[32] = IL-6 + drug 1 uM, MSD signal (No stim. 1964, IL-6 alone 15405)
[33] = IL-6 + drug 1 uM, MSD signal (No stim. 9210, IL-6 alone 17743)
[34] = IL-6 + drug 5 uM, MSD signal (No stim. 689, IL-6 alone 33641)
[35] = IL-6 + drug 5 uM, MSD signal (No stim. 1964, IL-6 alone 15405)
[36] = IL-6 + drug 5 uM, MSD signal (No stim. 9210, IL-6 alone 17743)

For `CCS(=O)(=O)N1CC(CC#N)(n2cc(-c3ncnc4[nH]ccc34)cn2)C1` [baricitinib], the pSTAT3 [1, 4] was 5208, the pSTAT4 [1, 5] was 2961 and the pSTAT5 [1, 6] was 1408. For the same compound, the pSTAT3 [1, 7] was 2798, the pSTAT4 [1, 8] was 2801 and the pSTAT5 [1, 9] was 1243. For the same compound, the pSTAT3 [1, 10] was 2528, the pSTAT4 [1, 11] was 1741 and the pSTAT5 [1, 12] was 827. For the same compound, the pSTAT3 [1, 13] was 1441, the pSTAT4 [1, 14] was 1359 and the pSTAT5 [1, 15] was 710. The pSTAT3 [1, 16] was 702, the pSTAT4 [1, 17] was 1059 and the pSTAT5 [1, 18] was 586. For the same compound, the pSTAT3 [1, 19] was 288, the pSTAT4 [1, 20] was 690 and the pSTAT5 [1, 21] was 471. For the same compound, the viability at 0 day, 5 nM (in vitro; CAR-T cells) was 75%, the viability at 0 day, 10 nM (in vitro; CAR-T cells) was 75% and the viability at 4 day, 5 nM (in vitro; CAR-T cells) was 67.4%. It also gave a viability at 4 day, 10 nM (in vitro; CAR-T cells) of 58.9%, a viability at 8 day, 5 nM (in vitro; CAR-T cells) of 72.7% and a viability at 12 day, 5 nM (in vitro; CAR-T cells) of 82.3%. For the same compound, the viability at 12 day, 10 nM (in vitro; CAR-T cells) was 71.2% and the “impact on CAR-T serial killing (percent cytotoxicity)” value [2] was “negative impacts”.
For `C[C@@H]1C[C@H]2[C@@H]3CCC4=CC(=O)C=C[C@]4(C)[C@@]3(F)[C@@H](O)C[C@]2(C)[C@@]1(O)C(=O)CO` [dexamethasone], the pSTAT3 [1, 22] was 25688, the pSTAT4 [1, 23] was 11588 and the pSTAT5 [1, 24] was 14850. It also gave a pSTAT3 [1, 25] of 26776, a pSTAT4 [1, 26] of 14052 and a pSTAT5 [1, 27] of 16019. The pSTAT3 [1, 28] was 28004, the pSTAT4 [1, 29] was 15286 and the pSTAT5 [1, 30] was 18936. For the same compound, the pSTAT3 [1, 31] was 27312, the pSTAT4 [1, 32] was 15357 and the pSTAT5 [1, 33] was 18209. For the same compound, the pSTAT3 [1, 34] was 24869, the pSTAT4 [1, 35] was 11925 and the pSTAT5 [1, 36] was 15761. For the same compound, the viability at 0 day, 50 nM (in vitro; CAR-T cells) was 75%, the viability at 0 day, 100 nM (in vitro; CAR-T cells) was 75% and the viability at 4 day, 50 nM (in vitro; CAR-T cells) was 65.9%. For the same compound, the viability at 4 day, 100 nM (in vitro; CAR-T cells) was 52.8%, the viability at 8 day, 50 nM (in vitro; CAR-T cells) was 53.8% and the viability at 8 day, 100 nM (in vitro; CAR-T cells) was 56.6%. For the same compound, the viability at 12 day, 50 nM (in vitro; CAR-T cells) was 67.8%, the viability at 12 day, 100 nM (in vitro; CAR-T cells) was 56.5% and the “PPB adj. in Vitro concentration” value [3] was 67.4 nM. The “clinically relevant dose level (in vitro concentration)” value [3] was ~70 nM.
Work on `C[C@@H]1CCN(C(=O)CC#N)C[C@@H]1N(C)c1ncnc2[nH]ccc12` [tofacitinib] yielded a pSTAT3 [1, 22] of 2238, a pSTAT4 [1, 23] of 2159 and a pSTAT5 [1, 24] of 1431. It also gave a pSTAT3 [1, 25] of 7733, a pSTAT4 [1, 26] of 3698 and a pSTAT5 [1, 27] of 2424. For the same compound, the pSTAT3 [1, 28] was 3382, the pSTAT4 [1, 29] was 2503 and the pSTAT5 [1, 30] was 1756. For the same compound, the pSTAT3 [1, 31] was 2301, the pSTAT4 [1, 32] was 2259 and the pSTAT5 [1, 33] was 1528. The pSTAT3 [1, 34] was 2165, the pSTAT4 [1, 35] was 2033 and the pSTAT5 [1, 36] was 1421. The “effect on phosphorylated-STAT-1, STAT-3 and STAT-5 levels” value ([1]; IL-6 stimulation 100 ng/ml, 20 minutes, 10 μM to 0.125 μM) was “reduction of phosphorylated-STAT-1, STAT-3 and STAT-5 levels in a dose-responsive manner”, the pSTAT3 [1, 4] was 5917 and the pSTAT4 [1, 5] was 3525. It also gave a pSTAT5 [1, 6] of 1810, a pSTAT3 [1, 7] of 4586 and a pSTAT4 [1, 8] of 3455. For the same compound, the pSTAT5 [1, 9] was 1808, the pSTAT3 [1, 10] was 3998 and the pSTAT4 [1, 11] was 2304. It also gave a pSTAT5 [1, 12] of 1187, a pSTAT3 [1, 13] of 3115 and a pSTAT4 [1, 14] of 1982. For the same compound, the pSTAT5 [1, 15] was 914, the pSTAT3 [1, 16] was 2148 and the pSTAT4 [1, 17] was 1499. For the same compound, the pSTAT5 [1, 18] was 703, the pSTAT3 [1, 19] was 1006 and the pSTAT4 [1, 20] was 918. For the same compound, the pSTAT5 [1, 21] was 513, the viability at 0 day, 50 nM (in vitro) was 75% and the viability at 0 day, 100 nM (in vitro) was 75%. The viability at 4 day, 50 nM (in vitro) was 67.7%, the viability at 4 day, 100 nM (in vitro) was 61.8% and the viability at 8 day, 50 nM (in vitro) was 74.2%. For the same compound, the viability at 8 day, 100 nM (in vitro) was 64.7%, the viability at 12 day, 50 nM (in vitro) was 80.1% and the viability at 12 day, 100 nM (in vitro) was 85.2%.
